# Laboratory results published in patent publication US20260167935A1, “METHOD FOR CULTURING TONSIL-DERIVED MESENCHYMAL STEM CELLS USING N-ACETYLCYSTEINE (NAC)” (priority 2023, published 2026).
# Legend:
# [1] = tested on: tonsil-derived human MSCs; assay: Cell viability after NAC pretreatment for 24 hours (determination of NAC pretreatment concentration); details: NAC 10 mM, FIG. 1
# Method: In order to determine the concentration of NAC for pretreatment of tonsil-derived human MSCs, the tonsil-derived human MSCs were pretreated with NAC prepared in Example 1 at concentrations of 2, 4, 6, 8, 10, 15, and 100 mM for 24 hours, and then cell viability was evaluated.
# [2] = tested on: tonsil-derived human MSCs (hMSC-T, passage 6); assay: Antioxidant activity (ROS assay) upon NAC pretreatment followed by PYBR treatment; type: cell-based; details: NAC pretreatment 10 mM and 20 mM for 24 hours, then PYBR 5, 10, 20 μg/mL for 24 hours; FIG. 5
# Method: In order to evaluate antioxidant activity upon NAC treatment, tonsil-derived human MSCs (hMSC-T, passage 6) were seeded in a culture medium at a density of 1×10^4 cells/well. On the following day, NAC was treated at concentrations of 10 mM and 20 mM for 24 hours. Thereafter, the cells were washed with PBS and the medium was replaced, followed by treatment with PYBR at concentrations of 5, 10, and 20 μg/mL. After 24 hours, the cells were washed three times with PBS and incubated in 100 μL of ROS working solution at 37° C. for 30 minutes in the dark. Absorbance was then measured at 488/525 nm (FIG. 4). A group not treated with NAC was used as a positive control.
# [3] = tested on: tonsil-derived human MSCs (hMSC-T, passage 6); assay: Cell viability (WST, absorbance at 450 nm) upon NAC pretreatment followed by PYBR treatment; type: cell-based; details: NAC pretreatment 10 mM and 20 mM for 24 hours, then PYBR 5, 10, 20 μg/mL for 24 hours; FIG. 3
# Method: In order to evaluate cell viability upon NAC treatment, tonsil-derived human MSCs (hMSC-T, passage 6) were seeded in a culture medium at a density of 1×10^3 cells/well. On the following day, NAC was treated at concentrations of 10 mM and 20 mM for 24 hours. Thereafter, the cells were washed with PBS and the medium was replaced, followed by treatment with PYBR at concentrations of 5, 10, and 20 μg/mL. After 24 hours, the cells were washed three times with PBS and transferred to fresh medium (100 μL) containing 10 μL of WST solution, and incubated at 37° C. for 2 hours in the dark. Absorbance at 450 nm was then measured to evaluate cell viability (FIG. 2). A group not treated with NAC was used as a positive control.
compound,measurement,setting,value
"CC(=O)NC(CS)C(=O)O (stereo not drawn) [NAC, 2-acetamido-3-sulfanylpropanoic acid]",cytotoxicity (cell viability),[1],no cytotoxicity was observed
same,ROS levels after PYBR treatment,[2],significantly reduced ROS levels
same,cell viability after PYBR treatment,[3],significantly restored cell viability
